# Laboratory results published in US20090215713A1, “Use of atp for the manufacture of a medicament for the prevention and treatment of oxidative stress and related conditions” (priority 2004, published 2009).
# “Also recorded” adds a separate entry of the source.
# Assays:
# TNF-α [1] = test: LPS+PHA-induced TNF-α secretion in whole blood from healthy subjects (ELISA); type: cell-based, human
# Method: FIG. 7 Effect of ATP on LPS+PHA-induced TNF-α secretion in whole blood from healthy subjects. The whole blood was exposed to 10 μg/ml LPS and 1 μg/ml PHA with indicated concentrations of ATP for 24 h. The TNF-α released into the supernatants was analyzed using the ELISA method. Results are expressed in percentage, 100% being the TNF-α release under stimulation by LPS+PHA without ATP. […] Data are expressed as the mean values; error bars represent SEM. *, different from control (stimulation by LPS+PHA without ATP) (P<0.05).
# FIG. 13 Effect of different purinergic compounds on LPS+PHA-induced TNF-α secretion in whole blood. The whole blood was exposed to 10 μg/ml LPS and 1 μg/ml PHA with the indicated purinergic compounds at the concentration of 300 μM for 24 h. The TNF-α released into the supernatant was analyzed using the ELISA method. Results are expressed in percentage, 100% being the TNF-α release under stimulation by LPS+PHA without addition of a purinergic compound (control). […] The TNF-α release induced by LPS+PHA from whole blood was not inhibited by UTP, UDP or CTP. Data are expressed as the mean values; error bars represent SEM.
# Blood was collected from 8 healthy subjects in heparin containing vacutainer tubes. All incubations were performed in duplicate. ATP was dissolved in RPMI 1640 culture medium, at a final concentration of 1-300 μM, and blood pre-incubated with ATP at 5% CO2 at 37 DC for 30 min. After stimulation with LPS en PHA (10 and 1 μg/ml final concentration, respectively), the plates were incubated in 5% CO2 at 37° C. for 24 h. Cell-free supernatant fluids were then collected by centrifugation (6000 rpm, 10 min at 4° C.) and stored at −20° C. until tested for presence of cytokines. All cytokines were quantified by means of PeliKine Compact human ELISA kits (CLB/Sanquin, The Netherlands), based on appropriate and validated sets of monoclonal antibodies.
# Whole blood was collected and stimulated with LPS+PHA as described for Experiment 2. ATP, dissolved in RPMI 1640 culture medium, was added to the blood at a final concentration of 1-1000 μM. The agonists were added in the same way as ATP, however their stock solutions are prepared in PBS and further diluted in medium. All incubations are performed in duplicate.
# IL-6 = test: LPS+PHA-induced IL-6 secretion in whole blood under oxidative stress (H2O2); type: cell-based, human; details: absence or presence of H2O2 (1 and 10 mM)
# Method: FIG. 12 Effect of ATP on LPS+PHA-induced IL-6 secretion in whole blood from healthy subjects under conditions of oxidative stress. Two concentrations of H2O2 (1 and 10 mM) were added to whole blood, together with the indicated concentrations of ATP. Then, blood was exposed to 10 μg/ml LPS and 1 μg/ml PHA, and incubated for 24 h. The IL-6 released into the supernatants was analyzed using the ELISA method. […] Data are expressed at the mean values; error bars represent SEM.
# (§1) Whole blood of healthy subjects was collected as described for Experiment 2, and pre-incubated with 1 or 10 mM H2O2 at 5% CO2 and 37° C. for 15 min. Then, ATP was added to the blood at final concentrations of 1-300 μM for the 30 min incubation step, and then incubated as in Experiment 2 with LPS/PHA for 24 hours.
# TNF-α/IL-10 ratio = TNF-α/IL-10 ratio in whole blood from patients with oxidative stress-related diseases; type: cell-based, human; details: for reduction in the TNF-α/IL-10 ratio: 300 μM ATP
# Method: FIG. 15 Effect of ATP on the ratio of TNF-α/IL-10 secretion in whole blood from a patient with oxidative stress-related disease. […] In both experiments, TNF-α and IL-10 released into the supernatants was analyzed using the ELISA method. Results are expressed in percentage, 100% being the TNF-α/IL-10 ratio without ATP (control).
# FIG. 16 Effect of ATP on the ratio of TNF-α/IL-10 secretion in whole blood from a patient with oxidative stress-related disease. […] In both experiments, TNF-α and IL-10 released into the supernatants was analyzed using the ELISA method. Results are expressed in percentage, 100% being the TNF-α/IL-10 ratio without ATP (control). Both in untreated and in LPS-PHA stimulated blood, the ratio of TNF-α/IL-10 release from whole blood was reduced by the addition of ATP.
# FIG. 17 Effect of ATP on the ratio of TNF-α/IL-10 secretion in whole blood from a patient with oxidative stress-related disease. […] TNF-α and IL-10 released into the supernatants was analyzed using the ELISA method. Results are expressed in percentage, 100% being the TNF-α/IL-10 ratio without ATP (control). The ratio of TNF-α/IL-10 release from whole blood was reduced by the addition of ATP.
# This experiment was performed to test the effects of ATP ex vivo in whole blood collected from patients with oxidative stress-related diseases, both without and with LPS+PHA stimulation of cytokine production. Whole blood from 3 patients with different oxidative stress-related diseases was collected as described for experiment 2, and incubated for 24 hours at 5% CO2 and 37° C., with ATP added at a final concentration 300 μM, or no ATP (control). Cytokine production was measured as in Experiment 2. Results were expressed as the TNF-α/IL-10 ratio relative to the control condition (no ATP).
# [2] = cited from earlier work
# [3] = previous study, ATP infusion during 30 hrs; cited from earlier work
# TNF-α [4] = test: LPS+PHA-induced TNF-α secretion in whole blood under oxidative stress (H2O2); type: cell-based, human
# Method: FIG. 10 Effect of ATP on LPS+PHA-induced TNF-α secretion in whole blood from healthy subjects under conditions of oxidative stress. Two concentrations of H2O2 (1 and 10 mM) were added to whole blood, followed by the incubation with the concentrations of ATP. Then, blood was exposed to 10 μg/ml LPS and 1 μg/ml PHA, and incubated for 24 h. The TNF-α released into the supernatants was analyzed using the ELISA method. […] Data are expressed as the mean values; error bars represent SEM.
# as §1
compound,measurement,setting,value
"Nc1ncnc2c1ncn2[C@@H]1O[C@H](COP(=O)(O)OP(=O)(O)OP(=O)(O)O)[C@@H](O)[C@H]1O [ATP, Adenosine 5′-triphosphate]",effect of purinergic compound on LPS+PHA-induced TNF-α release,"TNF-α [1]; 300 μM, 24 h",greatest inhibition
same,effect on inhibiting TNFα and stimulating IL-10 production,"TNF-α [1]; LPS-PHA stimulated whole blood, Experiment 4",more effective
same,effect on LPS+PHA-induced TNF-α release,"TNF-α [1]; indicated ATP concentrations, 24 h",significantly inhibited
same,effect on LPS+PHA-induced IL-6 release,IL-6,no effect; also recorded: not influenced
same,reduction in the TNF-α/IL-10 ratio,"TNF-α/IL-10 ratio; patient blood stimulated with LPS+PHA, depending on the patient",40-80%
same,reduction in the TNF-α/IL-10 ratio,TNF-α/IL-10 ratio; patient blood without LPS+PHA,60-80%
same,effect on ratio of TNF-α/IL-10 release,"TNF-α/IL-10 ratio; patient blood, untreated and/or LPS+PHA-stimulated",markedly reduced
same,body weight,"[2]; phase I/II, 2 to 3 intravenous courses of 96 hours",stabilisation
same,average weight gain,"[2]; phase II, after 4 ATP courses",1.3 kg
same,life-threatening side effects,[3],did not find any
same,effect on LPS+PHA-induced TNF-α release,TNF-α [4]; 1 or 10 mM H2O2,significantly inhibited
same,effect on TNF-α release,"TNF-α [4]; ATP below 100 μM, 1 or 10 mM H2O2",did not affect
same,inhibition at 300 µM,"TNF-α [4]; Homo sapiens, 300 μM ATP, 1 or 10 mM H2O2, LPS-PHA, read-out: inhibition of TNF-α release",~50%
